{"source": "patent US20050163873A1", "about": "“Methods and formulations for treating glaucoma” (priority 2004, published 2005)", "origin": "cited, not measured here", "key": {"[1]": {"system": "cultured neuronal cells and astrocytes", "conditions": "pretreatment of cultured neuronal cells and astrocytes"}, "[2]": {"system": "heme oxygenase 1", "conditions": "neuronal cell cultures"}, "[3]": {"system": "retina", "conditions": "guinea pig, in vivo"}, "[4]": {"system": "primary cultures of cerebellar neurons"}, "[5]": {"system": "diabetic rats"}, "[6]": {"system": "goldfish retinal explants", "conditions": "post-crush goldfish retinal explants, in the presence of fetal calf serum"}, "[7]": {"system": "cultured cortical cells"}, "[8]": {"system": "hippocampal CA1 neurons", "conditions": "central infusion after forebrain ischemia, gerbil"}, "[9]": {"system": "inducible nitric oxide synthase (iNOS)"}, "[10]": {"conditions": "folic acid 400 μg associated with vitamin B6 and B12"}, "[11]": {"system": "cultured neurons"}, "[12]": {"system": "tumor necrosis factor-alpha (TNF-α) and nitric oxide (NO)"}, "[13]": {"target": "HIV-1 enzyme integrase (Human immunodeficiency virus type 1 group M subtype B, UniProt P04585)"}, "[14]": {"system": "DNA topoisomerase II"}, "[15]": {"system": "rabbits"}, "[16]": {"system": "rabbits", "remark": "listed apart in the source"}, "[17]": {"system": "diabetic rats", "remark": "listed apart in the source"}, "[18]": {"system": "human Tenon's capsule fibroblast", "conditions": "human Tenon's capsule fibroblasts"}, "[19]": {"system": "patients with glaucoma"}, "[20]": {"system": "cultured retinal ganglion cells"}, "[21]": {"system": "rats"}, "[22]": {"system": "nitric oxide and tumor necrosis factor alpha"}, "[23]": {"system": "cortical cell cultures"}, "[24]": {"system": "cultured neurons from embryonic mouse cortex and striatum"}}, "data": [{"smiles": "COC1=C(OC)C(=O)C(C/C=C(\\C)CC/C=C(\\C)CC/C=C(\\C)CC/C=C(\\C)CC/C=C(\\C)CC/C=C(\\C)CC/C=C(\\C)CC/C=C(\\C)CC/C=C(\\C)CCC=C(C)C)=C(C)C1=O", "note": "[coenzyme Q10]", "values": [{"measurement": "cell death due to glutamate neurotoxicity", "setting": "[1]", "result": "inhibited cell death"}]}, {"smiles": "Oc1ccc(C=Cc2cc(O)cc(O)c2)cc1", "note": "[resveratrol, Resveratrol]", "values": [{"measurement": "heme oxygenase 1", "setting": "[2]", "result": "induces"}]}, {"smiles": "C[N+](C)(C)CC(O)CC(=O)[O-]", "note": "(stereo not shown) [Carnitine]", "values": [{"measurement": "retinal injury following ischemia-reperfusion injury", "setting": "[3]", "result": "prevent"}, {"measurement": "glutamate neurotoxicity", "setting": "[4]", "result": "prevents"}]}, {"smiles": "NCCS(=O)(=O)O", "note": "[Taurine]", "values": [{"measurement": "ATPase activity", "setting": "[5]", "result": "preserves"}, {"measurement": "lipid peroxidation", "setting": "[5]", "result": "significantly decreases"}, {"measurement": "neuritic outgrowth", "setting": "[6]", "result": "increased length and density of neurites"}]}, {"smiles": "CC(C)=CCC[C@](C)(O)[C@H]1CC[C@]2(C)[C@@H]1[C@H](O)C[C@@H]1[C@@]3(C)CC[C@H](O[C@@H]4O[C@H](CO)[C@@H](O)[C@H](O)[C@H]4O[C@@H]4O[C@H](CO)[C@@H](O)[C@H](O)[C@H]4O)C(C)(C)[C@@H]3CC[C@]12C", "note": "[Ginsenoside Rg3]", "values": [{"measurement": "neuroprotective effects on cultured cortical cells", "setting": "[7]", "result": "significant neuroprotective effects"}]}, {"smiles": "CC(C)=CCC[C@](C)(O[C@@H]1O[C@H](CO[C@@H]2O[C@H](CO)[C@@H](O)[C@H](O)[C@H]2O)[C@@H](O)[C@H](O)[C@H]1O)[C@H]1CC[C@]2(C)[C@@H]1[C@H](O)C[C@@H]1[C@@]3(C)CC[C@H](O[C@@H]4O[C@H](CO)[C@@H](O)[C@H](O)[C@H]4O[C@@H]4O[C@H](CO)[C@@H](O)[C@H](O)[C@H]4O)C(C)(C)[C@@H]3CC[C@]12C", "note": "[Ginsenoside Rb1, ginsenoside Rb1]", "values": [{"measurement": "neuroprotective effects on cultured cortical cells", "setting": "[7]", "result": "significant neuroprotective effects"}, {"measurement": "protection of hippocampal CA1 neurons against lethal ischemic damage", "setting": "[8]", "result": "protects"}]}, {"smiles": "N[C@H]1C(O)O[C@H](CO)[C@@H](O)[C@@H]1O", "note": "(stereo partly shown) [glucosamine]", "values": [{"measurement": "inducible nitric oxide synthase (iNOS) inhibition", "setting": "[9]", "result": "inhibits"}]}, {"smiles": "Nc1nc2ncc(CNc3ccc(C(=O)N[C@@H](CCC(=O)O)C(=O)O)cc3)nc2c(=O)[nH]1", "note": "[folic acid]", "values": [{"measurement": "reduction of homocysteine levels", "setting": "[10]", "result": 30, "unit": "%"}]}, {"smiles": "COc1cc(C[C@H]2C(=O)OC[C@@H]2Cc2ccc(OC)c(OC)c2)ccc1O", "note": "[Arctigenin]", "values": [{"measurement": "glutamate toxicity", "setting": "[11]", "result": "protect"}, {"measurement": "tumor necrosis factor-alpha (TNF-α) and nitric oxide (NO) production", "setting": "[12]", "result": "inhibit"}, {"measurement": "HIV-1 enzyme integrase inhibition", "setting": "[13]", "result": "inhibit"}, {"measurement": "DNA topoisomerase II inhibition", "setting": "[14]", "result": "inhibitor"}]}, {"smiles": "C=CCSSC[C@H](N)C(=O)O", "note": "[S-Allylmercaptocysteine]", "values": [{"measurement": "IOP", "setting": "[15]", "result": "lower IOP"}]}, {"smiles": "Cc1c(C)c2c(c(C)c1O)CC[C@@](C)(CCC[C@H](C)CCC[C@H](C)CCCC(C)C)O2", "note": "[D-alpha-tocopherol]", "values": [{"measurement": "results of filtering surgery", "setting": "[16]", "result": "improve the results"}, {"measurement": "amount of leukostasis", "setting": "[17]", "result": "prevented the increases in leukostasis"}, {"measurement": "retinal blood flow", "setting": "[17]", "result": "prevented"}, {"measurement": "fibroblast proliferation", "setting": "[18]", "result": "inhibit"}]}, {"smiles": "C[N+](C)(C)CCOP(=O)(O)OP(=O)([O-])OC[C@H]1O[C@@H](n2ccc(N)nc2=O)[C@H](O)[C@@H]1O", "note": "[citicoline, Citicoline]", "values": [{"measurement": "visual evoked potential and pattern electroretinography (ERG) parameters", "setting": "[19]", "result": "significant (P<0.01) improvement"}]}, {"smiles": "C/C1=C2/[N-][C@H]([C@H](CC(N)=O)[C@@]2(C)CCC(=O)NC[C@@H](C)OP(=O)([O-])O[C@H]2[C@@H](O)[C@@H](n3cnc4cc(C)c(C)cc43)O[C@@H]2CO)[C@]2(C)N=C(/C(C)=C3N=C(/C=C4N=C1[C@@H](CCC(N)=O)C\\4(C)C)[C@@H](CCC(N)=O)[C@]\\3(C)CC(N)=O)[C@@H](CCC(N)=O)[C@]2(C)CC(N)=O.[CH3-].[Co+3]", "note": "[Methylcobalamin]", "values": [{"measurement": "glutamate-induced neurotoxicity", "setting": "[20]", "result": "protects"}]}, {"smiles": "O=c1c(O)c(-c2ccc(O)c(O)c2)oc2cc(O)cc(O)c12", "note": "[Quercetin]", "values": [{"measurement": "progression of selenite-induced cataract", "setting": "[21]", "result": "slow the progression"}, {"measurement": "release of nitric oxide and tumor necrosis factor alpha", "setting": "[22]", "result": "inhibits"}, {"measurement": "oxidative injury", "setting": "[23]", "result": "neuroprotective"}]}, {"smiles": "CC(=O)N[C@@H](CS)C(=O)O", "note": "[N-acetyl-L-cysteine]", "values": [{"measurement": "neuronal cell survival rate", "setting": "[24]", "result": "increased"}]}, {"smiles": "O=C(O)CCCCC1CCSS1", "note": "(stereo not drawn) [alpha-lipoic acid, Alpha-lipoic acid]", "values": [{"measurement": "amount of leukostasis", "setting": "[17]", "result": "normalized"}]}]}
